In publication PMC10033409, “Autoregulation of GPCR signalling through the third intracellular loop” (Nature, 2023):
“And” between values parts separate entries of the source, which are not always exact repeats. Identical values can stand only once.

System: β2AR
Assay: Radiolabelled antagonist-binding assay (saturation);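 also: membranes expressing β2AR constructs, equilibrated with radioligand on ice, bound ligand retained on GF/C filters, Bmax normalized to membrane protein from a DC assay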
Parameters: species or system human; Bmax / 125I-Cyanopindolol saturation binding signal: unit not given here
Conditions: for Bmax / fmol 125I-Cyanopindolol/mg sample: replicates 1-3 and Average; for fmol 125I-Cyanopindolol/mg sample, Fit: fitted curve
[1] = Sensor + Gs-peptide, 125I-Cyanopindolol 0.000239059 nM
[2] = Sensor + Gs-peptide, 125I-Cyanopindolol 0.0167722 nM
[3] = Sensor + Gs-peptide, 125I-Cyanopindolol 0.0344858 nM
[4] = Sensor + Gs-peptide, 125I-Cyanopindolol 0.073983 nM
[5] = Sensor + Gs-peptide, 125I-Cyanopindolol 0.202201 nM
[6] = Sensor + Gs-peptide, 125I-Cyanopindolol 0.415365 nM
[7] = Sensor + Gs-peptide, 125I-Cyanopindolol 0.83063 nM
[8] = Sensor + Gs-peptide, 125I-Cyanopindolol 1.64238 nM

[^125I](±)-cyanopindolol
Bmax (Sensor + Gs-pep): 1992.85 and 2334.87 and 1180.14
fmol 125I-Cyanopindolol/mg sample, Fit [1]: 0.00E+00 fmol/mg sample
fmol 125I-Cyanopindolol/mg sample [1]: -1.828 fmol/mg sample and 0.6291 fmol/mg sample and 0.5155 fmol/mg sample
fmol 125I-Cyanopindolol/mg sample, Fit [2]: 3.85E+02 fmol/mg sample
fmol 125I-Cyanopindolol/mg sample [2]: 331.932 fmol/mg sample and 483.578 fmol/mg sample and 237.189 fmol/mg sample
fmol 125I-Cyanopindolol/mg sample, Fit [3]: 6.37E+02 fmol/mg sample
fmol 125I-Cyanopindolol/mg sample [3]: 633.08 fmol/mg sample and 885.671 fmol/mg sample and 427.455 fmol/mg sample
fmol 125I-Cyanopindolol/mg sample, Fit [4]: 9.68E+02 fmol/mg sample
fmol 125I-Cyanopindolol/mg sample [4]: 973.823 fmol/mg sample and 1370.71 fmol/mg sample and 652.022 fmol/mg sample
fmol 125I-Cyanopindolol/mg sample, Fit [5]: 1.38E+03 fmol/mg sample
fmol 125I-Cyanopindolol/mg sample [5]: 1415.68 fmol/mg sample and 1842.87 fmol/mg sample and 880.16 fmol/mg sample
fmol 125I-Cyanopindolol/mg sample, Fit [6]: 1.58E+03 fmol/mg sample
fmol 125I-Cyanopindolol/mg sample [6]: 1527.87 fmol/mg sample and 2049.46 fmol/mg sample and 1008.05 fmol/mg sample
fmol 125I-Cyanopindolol/mg sample, Fit [7]: 1.71E+03 fmol/mg sample
fmol 125I-Cyanopindolol/mg sample [7]: 1817.18 fmol/mg sample and 2238.94 fmol/mg sample and 1107.54 fmol/mg sample
fmol 125I-Cyanopindolol/mg sample, Fit [8]: 1.78E+03 fmol/mg sample
fmol 125I-Cyanopindolol/mg sample [8]: 1925.74 fmol/mg sample and 2301.14 fmol/mg sample and 1169.54 fmol/mg sample
fmol 125I-Cyanopindolol/mg sample (Sensor + Gs-peptide, 125I-Cyanopindolol 1.64238 nM, mean): 1798.81 fmol/mg sample
fmol 125I-Cyanopindolol/mg sample, Fit (Sensor, 125I-Cyanopindolol 0.0198458 nM (Average)): 3.34E+02 fmol/mg sample
fmol 125I-Cyanopindolol/mg sample, Fit (Sensor, 125I-Cyanopindolol 0.0420593 nM (Average)): 5.96E+02 fmol/mg sample
fmol 125I-Cyanopindolol/mg sample, Fit (Sensor, 125I-Cyanopindolol 0.234223 nM (Average)): 1.38E+03 fmol/mg sample
fmol 125I-Cyanopindolol/mg sample, Fit (Sensor, 125I-Cyanopindolol 0.468204 nM (Average)): 1.60E+03 fmol/mg sample
fmol 125I-Cyanopindolol/mg sample, Fit (Sensor, 125I-Cyanopindolol 0.871756 nM (Average)): 1.73E+03 fmol/mg sample
fmol 125I-Cyanopindolol/mg sample, Fit (Sensor, 125I-Cyanopindolol 1.70257 nM (Average)): 1.81E+03 fmol/mg sample
Bmax (Sensor): 1914.14 and 2557.54 and 1116.04
125I-Cyanopindolol saturation binding signal (∆ICL3 + 30 µM Q, 0.0283 nM, Average): 236.51
125I-Cyanopindolol saturation binding signal (∆ICL3 + 30 µM Q, 0.0283 nM, Fit): 285.20
125I-Cyanopindolol saturation binding signal (∆ICL3 + 30 µM Q, 0.0283 nM, experiments 1-3): 222.98 and 255.55 and 231.00
125I-Cyanopindolol saturation binding signal (∆ICL3 + 30 µM Q, 0.0474 nM, Average): 366.56
125I-Cyanopindolol saturation binding signal (∆ICL3 + 30 µM Q, 0.0474 nM, Fit): 463.24
125I-Cyanopindolol saturation binding signal (∆ICL3 + 30 µM Q, 0.0474 nM, experiments 1-3): 296.41 and 421.89 and 381.36
125I-Cyanopindolol saturation binding signal (∆ICL3 + 30 µM Q, 0.10 nM, Average): 910.97
125I-Cyanopindolol saturation binding signal (∆ICL3 + 30 µM Q, 0.10 nM, Fit): 816.24
125I-Cyanopindolol saturation binding signal (∆ICL3 + 30 µM Q, 0.10 nM, experiments 1-3): 840.60 and 993.89 and 898.42
125I-Cyanopindolol saturation binding signal (∆ICL3 + 30 µM Q, 1.85 nM, Average): 1906.34
125I-Cyanopindolol saturation binding signal (∆ICL3 + 30 µM Q, 1.85 nM, Fit): 1809.97
125I-Cyanopindolol saturation binding signal (∆ICL3 + 30 µM Q, 1.85 nM, experiments 1-3): 1586.99 and 2170.25 and 1961.77
125I-Cyanopindolol saturation binding signal (∆ICL3, 0.0283 nM, Average): 126.54
125I-Cyanopindolol saturation binding signal (∆ICL3, 0.0283 nM, Fit): 399.52
125I-Cyanopindolol saturation binding signal (∆ICL3, 0.0283 nM, experiments 1-3): 94.88 and 85.74
125I-Cyanopindolol saturation binding signal (∆ICL3, 0.0474 nM, Average): 687.11
125I-Cyanopindolol saturation binding signal (∆ICL3, 0.0474 nM, Fit): 612.62
125I-Cyanopindolol saturation binding signal (∆ICL3, 0.10 nM, Average): 1201.35
125I-Cyanopindolol saturation binding signal (∆ICL3, 0.10 nM, Fit): 1024.98
125I-Cyanopindolol saturation binding signal (∆ICL3, 1.85 nM, Average): 2504.14
125I-Cyanopindolol saturation binding signal (∆ICL3, 1.85 nM, Fit): 2413.51
125I-Cyanopindolol saturation binding signal (∆ICL3, 1.85 nM, experiments 1-3): 2561.55 and 2855.56 and 2095.33
